Measured values as given in US20130131161A1, “METHODS AND COMPOSITIONS FOR CARDIOVASCULAR DISEASES AND CONDITIONS” (priority 2009, published 2013).
Values joined by “and” are separate entries in the source; they are usually repeats but may differ in a detail not shown here. Equal values may be shown once.

Tested on: Human umbilical vein endothelial cells (HUVECs)
Assay: eNOS activity analysis: NO, ONOO− and NO/ONOO− release from HUVECs of 50 genotyped donors in response to LA-419 (Example 2)
Type: cell-based
Details: for Fold difference NO/ONOO− (mean ± sd) / Fold difference ONOO− (mean ± sd) / Fold difference NO (mean ± sd): Caucasian, (LA-419 5 μM)/(control); for % Change NO (mean ± sd) / % Change NO/ONOO− (mean ± sd) / % Change ONOO− (mean ± sd): LA-419 1 μM vs control
Description: Concurrent measurements of NO and ONOO^− were carried out with tandem electrochemical nanosensors combined into one working unit with a total diameter of 200-500 nm (FIG. 1). Their design was based on previously developed and well-characterized chemically modified carbon-fiber technology (Malinski and Taha, 1992; Lvovich and Scheeline, 1997). Each of the nanosensors was made by depositing a sensing material on the tip of a carbon fiber (length 4-5 μm, diameter 0.2-0.5 μm). The fibers were sealed with nonconductive epoxy and electrically connected to copper wires with conductive silver epoxy. A conductive film of polymeric nickel (II) tetrakis(3-methoxy-4-hydroxyphenyl)porphyrin for the NO-sensor and polymeric film of Mn (III) [2.2]paracyclophanylporphyrin was used for the ONOO^−-sensor.
A module of NO/ONOO^− nanosensors (diameter 1-2 μm) with a platinum wire (0.1 mm) counter electrode and saturated calomel reference electrode (SCE) were applied. Differential pulse voltammetry (DPV) and amperometry were performed with a computer-based Gamry VFP600 multichannel potentiostat. DPV was used to measure the basal NO and ONOO^− concentrations, and amperometry was used to measure changes in NO and ONOO^− concentrations from its basal level with time. The DPV current at the peak potential characteristic for NO oxidation (0.65 V) and ONOO^− reduction (−0.45 V) was directly proportional to the local concentrations of these compounds in the immediate vicinity of the sensor. Linear calibration curves (current vs. concentration) were constructed for each sensor from 10 nM to 3 μM before and after measurements with aliquots of NO and ONOO^− standard solutions, respectively. The detection limit of the sensors was 1.0 nM.
The quantification of each analyte (concentration in nM) was performed using a maximum current from amperograms and standard calibration curves. A reproducibility of measurements with nanosensors is relatively high (between 5-12%). […] The sensors were slowly raised 5±2 μm from the surface of a single endothelial cell. The eNOS agonist, calcium ionophore A23187 (CaI) as well as the different drugs were then added to the surrounding media at the cell surface with a nanoinjector that was also positioned by a computer controlled-micromanipulator.
This example describes the genotype-specific response of the three major eNOS variants to 1 μM and 5 μM concentrations of LA-419. The three major genetic polymorphisms studied were the Glu298Asp variant (E298D or 894G→T) in exon 7 of […], the −786T→C variant in the promoter region, and the intron 4 polymorphism (VNTR). All of these variants have possible effects on the cardiovascular system and endothelial dysfunction. For this study, human umbilical vein endothelial cells (HUVECs) from 50 donors between 18 and 32 years of age were used.
For the analysis several analysis techniques were employed. First, the effect of genotype on NO and ONOO^− release was explored within the different concentrations of LA-419 (control, 1 μM, 5 μM), calculated as the average peak release (nmols/L) of NO, ONOO^−, and NO/ONOO^−. The effect of genotype on the net increase in NO, ONOO^−, and NO/ONOO^− for LA-419 (1 μM and 5 μM) as compared to control was also measured. In addition, an analysis was done on the effect of genotype on the % change in NO, ONOO^−, and NO/ONOO^− production for LA-419 (1 μM and 5 μM), calculated as:
% Change=[(avg. LA-419−avg. control)/(avg. control)]*100
Finally, an evaluation was undertaken concerning the effect of genotype on the production of NO, ONOO^−, and NO/ONOO^− as the fold difference of control for LA-419 (1 μM and 5 μM), calculated as:
Fold Difference=(avg. LA-419)/(avg. control)
Within each calculation technique the results were compared for statistical significance using a non-parametric ANOVA Kruskal-Wallace test or a non-parametric Mann-Whitney U test. Statistical significance was set at a p-value <0.05 in a two-tailed distribution. […]

[1] = HUVEC donor Race Caucasian/Black

CC(=O)SC1COC2C(O[N+](=O)[O-])COC12 (stereo not drawn) [LA-419, S-(6-Nitro-oxi-hexahydro-furo[3,2-b]furan-3-1-il)thioacetate]
Fold difference NO/ONOO− (mean ± sd) (G894T G/G, n=10): 1.47 (0.12) | Fold difference ONOO− (mean ± sd) (G894T G/G, n=10): 0.81 (0.04) | Fold difference NO (mean ± sd) (G894T G/T & T/T, n=16): 1.11 (0.05) | Fold difference NO/ONOO− (mean ± sd) (G894T G/T & T/T, n=16): 1.35 (0.10) | Fold difference ONOO− (mean ± sd) (G894T G/T & T/T, n=16): 0.83 (0.07) | Fold difference NO (mean ± sd) (G894T G/T, n=13): 1.12 (0.05) | Fold difference NO/ONOO− (mean ± sd) (G894T G/T, n=13): 1.34 (0.09) | Fold difference ONOO− (mean ± sd) (G894T G/T, n=13): 0.83 (0.06) | Fold difference NO (mean ± sd) (G894T T/T, n=3): 1.11 (0.07) | Fold difference NO/ONOO− (mean ± sd) (G894T T/T, n=3): 1.39 (0.17) | Fold difference ONOO− (mean ± sd) (G894T T/T, n=3): 0.80 (0.12) | Fold difference NO (mean ± sd) (Intron 4 b/a & a/a, n=6): 1.16 (0.06) | Fold difference NO/ONOO− (mean ± sd) (Intron 4 b/a & a/a, n=6): 1.39 (0.11) | Fold difference ONOO− (mean ± sd) (Intron 4 b/a & a/a, n=6): 0.83 (0.05) | Fold difference NO (mean ± sd) (Intron 4 b/a, n=5): 1.16 (0.06) | Fold difference NO/ONOO− (mean ± sd) (Intron 4 b/a, n=5): 1.39 (0.12) | Fold difference ONOO− (mean ± sd) (Intron 4 b/a, n=5): 0.83 (0.05) | Fold difference NO (mean ± sd) (Intron 4 b/b, n=18): 1.13 (0.07) | Fold difference NO/ONOO− (mean ± sd) (Intron 4 b/b, n=18): 1.39 (0.13) | Fold difference ONOO− (mean ± sd) (Intron 4 b/b, n=18): 0.82 (0.06) | Fold difference NO (mean ± sd) (T-786C T/C & C/C, n=16): 1.12 (0.06) | Fold difference NO/ONOO− (mean ± sd) (T-786C T/C & C/C, n=16): 1.36 (0.10) | Fold difference ONOO− (mean ± sd) (T-786C T/C & C/C, n=16): 0.82 (0.06) | Fold difference NO (mean ± sd) (T-786C T/C, n=15): 1.13 (0.06) | Fold difference NO/ONOO− (mean ± sd) (T-786C T/C, n=15): 1.35 (0.09) | Fold difference ONOO− (mean ± sd) (T-786C T/C, n=15): 0.83 (0.04) | Fold difference NO (mean ± sd) (T-786C T/T, n=10): 1.17 (0.08) | Fold difference NO/ONOO− (mean ± sd) (T-786C T/T, n=10): 1.49 (0.14) and 1.45 (0.14) | Fold difference ONOO− (mean ± sd) (T-786C T/T, n=10): 0.82 (0.07) | peak release of NO versus control (LA-419 1 μM (Table c1)): smaller increase | ONOO− production versus control (LA-419 1 μM (Table c2)): no apparent decrease | % Change NO (mean ± sd) [1]: 9.57 (6.43) % | % Change NO/ONOO− (mean ± sd) [1]: 3.77 (26.27) % | % Change ONOO− (mean ± sd) [1]: 9.37 (21.79) % | % Change NO (mean ± sd) (HUVEC donor Race Not Reported): 14.50 (2.19) % | % Change NO/ONOO− (mean ± sd) (HUVEC donor Race Not Reported): 37.24 (1.75) % | % Change ONOO− (mean ± sd) (HUVEC donor Race Not Reported): −16.55 (2.66) % | % Change NO (mean ± sd) (HUVEC donor alpha): −4.73 (18.81) % | % Change NO/ONOO− (mean ± sd) (HUVEC donor alpha): −8.17 (36.37) % | % Change ONOO− (mean ± sd) (HUVEC donor alpha): 16.25 (36.48) % | % Change NO (mean ± sd) (HUVEC donor beta): 21.25 (25.58) % | % Change NO/ONOO− (mean ± sd) (HUVEC donor beta): 61.80 (74.46) % | % Change ONOO− (mean ± sd) (HUVEC donor beta): −18.41 (17.30) % | % Change NO (mean ± sd) (HUVEC donor delta): 8.95 (0) % | % Change NO/ONOO− (mean ± sd) (HUVEC donor delta): 33.68 (0) % | % Change ONOO− (mean ± sd) (HUVEC donor delta): −18.50 (0) % | % Change NO (mean ± sd) (HUVEC donor gamma): 11.74 (17.99) % | % Change NO/ONOO− (mean ± sd) (HUVEC donor gamma): 26.85 (45.85) % | % Change ONOO− (mean ± sd) (HUVEC donor gamma): −6.29 (19.74) % | % Change NO (mean ± sd) (HUVECs G894T variant G/G): 7.77 (18.82) % | % Change NO/ONOO− (mean ± sd) (HUVECs G894T variant G/G): 21.83 (51.78) % | % Change ONOO− (mean ± sd) (HUVECs G894T variant G/G): −2.10 (27.33) % | % Change NO (mean ± sd) (HUVECs G894T variant G/T): 20.99 (29.98) % | % Change NO/ONOO− (mean ± sd) (HUVECs G894T variant G/T): 50.45 (77.28) % | % Change ONOO− (mean ± sd) (HUVECs G894T variant G/T): −9.58 (26.95) % | % Change NO (mean ± sd) (HUVECs G894T variant T/T): 8.69 (18.85) % | % Change NO/ONOO− (mean ± sd) (HUVECs G894T variant T/T): 61.97 (81.82) % | % Change ONOO− (mean ± sd) (HUVECs G894T variant T/T): −25.44 (21.34) % | % Change NO (mean ± sd) (HUVECs Intron 4 variant a/a): −4.57 (24.67) % | % Change NO/ONOO− (mean ± sd) (HUVECs Intron 4 variant a/a): −3.62 (44.56) % | % Change ONOO− (mean ± sd) (HUVECs Intron 4 variant a/a): 9.62 (33.98) % | % Change NO (mean ± sd) (HUVECs Intron 4 variant b/a): 20.51 (28.08) % | % Change NO/ONOO− (mean ± sd) (HUVECs Intron 4 variant b/a): 42.92 (65.15) % | % Change ONOO− (mean ± sd) (HUVECs Intron 4 variant b/a): −6.58 (30.92) % | % Change NO (mean ± sd) (HUVECs Intron 4 variant b/b): 13.46 (23.13) % | % Change NO/ONOO− (mean ± sd) (HUVECs Intron 4 variant b/b): 43.27 (71.09) % | % Change ONOO− (mean ± sd) (HUVECs Intron 4 variant b/b): −10.24 (27.17) % | % Change NO (mean ± sd) (HUVECs Intron 4 variant c/c): −26.76 (0) % | % Change NO/ONOO− (mean ± sd) (HUVECs Intron 4 variant c/c): −26.15 (0) % | % Change ONOO− (mean ± sd) (HUVECs Intron 4 variant c/c): −0.63 (0) % | % Change NO (mean ± sd) (HUVECs T-786C variant C/C): 1.91 (11.63) % | % Change NO/ONOO− (mean ± sd) (HUVECs T-786C variant C/C): 2.52 (35.64) % | % Change ONOO− (mean ± sd) (HUVECs T-786C variant C/C): 11.13 (43.85) % | % Change NO (mean ± sd) (HUVECs T-786C variant T/C): 17.70 (29.53) % | % Change NO/ONOO− (mean ± sd) (HUVECs T-786C variant T/C): 52.82 (77.96) % | % Change ONOO− (mean ± sd) (HUVECs T-786C variant T/C): −12.40 (28.22) % | % Change NO (mean ± sd) (HUVECs T-786C variant T/T): 9.48 (17.79) % | % Change NO/ONOO− (mean ± sd) (HUVECs T-786C variant T/T): 25.48 (51.97) % | % Change ONOO− (mean ± sd) (HUVECs T-786C variant T/T): −5.17 (21.75) % | % Change Ratio, % Change NO/% Change ONOO− (mean ± sd) (LA-419 1 μM, HUVEC donor Race Asian): −0.48 (0) | % Change Ratio, % Change NO/% Change ONOO− (mean ± sd) (LA-419 1 μM, HUVEC donor Race Black): 2.81 (12.60) | % Change Ratio, % Change NO/% Change ONOO− (mean ± sd) (LA-419 1 μM, HUVEC donor Race Not Reported): −0.90 (0.28) | Net increase over control NO (mean ± sd) (LA-419 1 μM, HUVECs G894T + T-786C Combination of all genotypes other than G/G + T/T): 38.70 (72.56) nmols/L
